# From US20050220912A1, “Anti-inflammatory composition for treating pelvic endometriosis” (priority 2004, published 2005)
# Legend:
# [1] = Chondroitin sulfate solubility in oils; format: physicochemical; details: in codfish oil, corn oil and olive oil (from the flesh of the olive)
# From the text: Parallel experiments with codfish oil, corn oil and olive oil (from the flesh of the olive) were comtemplated, but chondroitin sulfate solubility in these oils was insufficient to meet the requirements of the experiment.
# [2] = Effect of olive kernel extract on absorption of tritiated chondroitin sulfate in vivo (serum radioactivity after oral capsule); design: species or system male Sprague-Dawley rats; details: serum radioactivity at 8 hours
# Method: Chondroitin sulfate was tritiated by New England Nuclear Corp. to a specific activity of 4.3 mCi/ml.
# Unlabeled chondroitin sulfate was dissolved in olive kernel extract at a ratio of about 55 w/v chondroitin sulfate powder to about 450 w/v of olive kernel extract (2.9% acidity as oleic acid, 1.03% water, 0.08% hexane). To this solution was added 20.2 microcuries of the labeled chondroitin sulfate. AAA gelatin capsules were filled with the resulting solution using an aluminum template molding device.
# The laboratory animals (250 g male Sprague-Dawley rats) were kept overnight without food but with free access to water. One capsule containg the above-described chondroitin sulfate-olive kernel extract solution was given to each rat per os. Control animals were given the equivalent amount of chondroitin, but without olive kernel extract. The animals were then given free access to food. Serum radioactivity was measured 8 hours thereafter in a beta scintillation counter.
# [3] = commercially available chondroitin sulfate preparations (cow trachea); cited from earlier work
substance,measurement,setting,value
chondroitin sulfate,chondroitin sulfate solubility,[1],insufficient
same,dose of labeled chondroitin sulfate that reached the circulation,"[2]; control animals, per os capsule without olive kernel extract, n=3",about 3.9%+/−0.4%
same,dose of labeled chondroitin sulfate absorbed into the general circulation,"[2]; per os capsule, chondroitin sulfate dissolved in olive kernel extract, n=4",about 14.3%+/−0.7%
same,Absorption from g.i. tract / absorbed orally,[3],less than 5%
